Experimental data: ChEMBL document CHEMBL4229375, “Towards new antibiotics targeting bacterial transglycosylase: Synthesis of a Lipid II analog as stable transition-state mimic inhibitor” (Bioorg Med Chem Lett, 2018)

Biological target: Bacterial penicillin-binding protein (Bacteria) (UniProt P24228+P0AD68+P02918+P02919+P0AEB2+P0AD65+P08506)
Assay: Inhibition of Acinetobacter baumannii PBP transglycosylase activity at 50 uM using NBD-labeled lipid 2 as substrate after 30 mins by N-acetylmuramidase enzyme coupled HPLC analysis relative to control
Type: protein assay

Question: With `CC(=O)N[C@H]1[C@H](O[C@H]2[C@H](O)[C@H](O)[C@@H](CP(=O)(O)OP(=O)(O)OC/C=C(\C)CC/C=C(/C)CC/C=C(\C)CCC=C(C)C)N[C@@H]2CO)O[C@H](CO)[C@@H](O)[C@@H]1O` as the compound, how does the inhibition read?
Answer: 70%
